Entries after “also recorded” stand apart in the source; their conditions may differ.
Tests used:
[1] = Type 2 Diabetes related vascular injury in human patients (Example 5); type: in vivo; details: human patients diagnosed with Type 2 Diabetes
[2] = system: Akt; experiment: Dephosphorylation and inactivation of Akt in mammalian cells (Example 3); type: cell-based; details: mammalian cells incl. fat, liver, muscle, endothelial cells, hepatocytes, pancreatic islet β-cells
[3] = Activity when given orally to mice; type: in vivo; details: oral
Description: (§1) The compounds used in the method of the present invention are protein phosphatase 2A (PP2A) inhibitors (Lu et al., 2009; U.S. Pat. No. 7,998,957 B2). […] It has also been shown that another structural homolog of these compounds, LB-107, is active when given orally to mice.
(§2) Disclosed herein is that PP2A inhibitors are effective in treating insulin resistance, Type 2 Diabetes and disorders related to Type 2 Diabetes. […] We have also shown that another structural homolog of these compounds, LB-107, is active when given orally to mice. LB-100 is entering clinical trials as a potential agent for enhancing the effectiveness of certain anticancer agents.

[4] = Other symptoms and complications of Type 2 Diabetes (Example 6); type: in vivo; details: for effects of other dysfunctions associated with or caused by Type 2 Diabetes: atherosclerosis, low glucose tolerance, dyslipidemia, hyperlipidemia, hypertriglyceridemia, hypercholesterolemia; for complications associated with or caused by Type 2 Diabetes: in vivo
[5] = Insulin resistance in human patients diagnosed with Type 2 Diabetes (Example 4); type: in vivo
[6] = molecular target: T1, PP2A (Homo sapiens, UniProt P67775); details: given parenterally in mice; cited from earlier work
T1 construct: endogenous in cells; host or cells: human cancer cells

[7] = molecular target: T1, PP2A; details: cited from earlier work
[8] = Toxicity studies in rats; type: in vivo; details: doses known to reduce PP2A activity in tissue
Description: as §2

[9] = Toxicity studies in dogs; type: in vivo; details: doses known to reduce PP2A activity in tissue
Description: as §2

[10] = system: cancer cells; experiment: Growth of cancer cells in mouse model systems; type: in vivo
Description: as §1, §2

[11] = system: endothelial barrier; details: model of sepsis; by inhibition of PP2A activation; cited from earlier work
[12] = system: endothelial barrier; details: Zhou et al, 2012; cited from earlier work
[13] = molecular target: T2, PP2A (Rattus norvegicus, UniProt P63331); details: inhibition of PP2A activity; Galbo et al, 2011; cited from earlier work
T2 construct: rat liver cells exposed to palmitate, a fatty acid, PP2A activity is increased; host or cells: rat liver cells (endogenous PP2A)
T2 sequence (P63331 whole entry): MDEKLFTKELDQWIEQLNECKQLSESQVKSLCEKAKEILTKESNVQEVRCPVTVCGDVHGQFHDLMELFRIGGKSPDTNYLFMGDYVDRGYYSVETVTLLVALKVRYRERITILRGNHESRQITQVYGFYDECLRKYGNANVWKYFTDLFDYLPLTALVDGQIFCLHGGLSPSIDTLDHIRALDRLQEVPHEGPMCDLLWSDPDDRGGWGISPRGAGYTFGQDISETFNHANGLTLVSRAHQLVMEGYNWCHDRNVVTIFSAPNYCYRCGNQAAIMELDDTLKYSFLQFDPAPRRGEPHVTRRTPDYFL
T2 sequence (Q5XI34 1-589 partner): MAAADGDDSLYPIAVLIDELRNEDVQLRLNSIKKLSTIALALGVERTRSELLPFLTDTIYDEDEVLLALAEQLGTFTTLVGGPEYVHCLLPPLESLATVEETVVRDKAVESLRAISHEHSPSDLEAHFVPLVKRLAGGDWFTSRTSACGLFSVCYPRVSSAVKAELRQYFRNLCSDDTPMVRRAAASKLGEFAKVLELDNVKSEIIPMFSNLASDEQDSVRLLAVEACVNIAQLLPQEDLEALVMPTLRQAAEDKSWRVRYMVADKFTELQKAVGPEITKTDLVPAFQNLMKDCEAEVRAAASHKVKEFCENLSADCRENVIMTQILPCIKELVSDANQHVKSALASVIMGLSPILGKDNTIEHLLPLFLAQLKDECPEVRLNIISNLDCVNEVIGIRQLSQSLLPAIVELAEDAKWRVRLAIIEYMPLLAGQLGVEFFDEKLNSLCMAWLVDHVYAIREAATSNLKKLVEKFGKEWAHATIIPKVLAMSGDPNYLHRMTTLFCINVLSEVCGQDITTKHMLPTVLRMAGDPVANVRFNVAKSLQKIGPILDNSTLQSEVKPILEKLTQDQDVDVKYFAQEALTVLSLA

T1 sequence (P67775 whole entry): as the sequence (P63331 whole entry) above, with L5V counted along it
T1 sequence (P30153 whole entry partner): as the sequence (Q5XI34 1-589 partner) above, with T324S counted along it

Compound | Type 2 Diabetes related vascular injury caused by disruption of the endothelial barrier [1] | Type 2 Diabetes related vascular injury in the liver, muscle, retina and pancreas [1] | activation of Akt [2] | dephosphorylation and inactivation of Akt by PP2A [2] | phosphorylation of Akt [2] | activity when given orally to mice [3] | effects of other dysfunctions associated with or caused by Type 2 Diabetes [4] | complications associated with or caused by Type 2 Diabetes [4] | insulin resistance [5] | insulin sensitivity [5] | inhibition of PP2A in xenografts of human tumor cells in mice [6] | inhibition of PP2A in vitro in human cancer cells [7] | toxicity on intravenous administration [8] | toxicity on intravenous administration [9] | growth of cancer cells in mouse model systems [10] | endothelial barrier function [11] | induction of endothelial barrier injury by lipopolysaccharide and interferon gamma [12] | impairment of insulin activity [13]
COC(=O)C1C(C(=O)N2CCN(C)CC2)[C@@H]2CC[C@H]1O2 (stereo in doubt) [LB-107, 3-(4-Methylpiperazine-1-carbonyl)-7-oxa-bicyclo[2,2,1]heptane-2-carboxylic acid methyl ester] | reduce Type 2 Diabetes related vascular injury caused by disruption of the endothelial barrier | reduce Type 2 Diabetes related vascular injury in the liver, muscle, retina and pancreas | increase activation of Akt | reduce dephophorylation and inactivation of Akt | increase phosphorylation of Akt | active | reduce the effects of other dysfunctions | reduce complications associated with or caused by Type 2 Diabetes | reduce insulin resistance | increase insulin sensitivity | – | – | – | – | – | – | – | –
CN1CCN(C(=O)C2C(C(=O)O)[C@H]3CC[C@@H]2O3)CC1 (some centres unmarked) [LB-100] | reduce Type 2 Diabetes related vascular injury caused by disruption of the endothelial barrier | reduce Type 2 Diabetes related vascular injury in the liver, muscle, retina and pancreas | increase activation of Akt | reduce dephophorylation and inactivation of Akt | increase phosphorylation of Akt | – | reduce the effects of other dysfunctions | reduce complications associated with or caused by Type 2 Diabetes | reduce insulin resistance | increase insulin sensitivity | inhibitors of PP2A | inhibitors of PP2A | without undue toxicity | without undue toxicity | inhibit the growth of cancer cells | – | – | –
CC(C)(C)OC(=O)N1CCN(C(=O)C2C(C(=O)O)[C@H]3CC[C@@H]2O3)CC1 (some centres unmarked) [LB-102] | reduce Type 2 Diabetes related vascular injury caused by disruption of the endothelial barrier | reduce Type 2 Diabetes related vascular injury in the liver, muscle, retina and pancreas | increase activation of Akt | reduce dephophorylation and inactivation of Akt | increase phosphorylation of Akt | – | reduce the effects of other dysfunctions | reduce complications associated with or caused by Type 2 Diabetes | reduce insulin resistance | increase insulin sensitivity | inhibitors of PP2A | inhibitors of PP2A | – | – | inhibit the growth of cancer cells | – | – | –
O=C1O[C@H]([C@@H](O)CO)C(O)=C1O [ascorbic acid] | – | – | – | – | – | – | – | – | – | – | – | – | – | – | – | improves endothelial barrier function | prevent the induction of endothelial barrier injury | –
C[C@@]12C(=O)OC(=O)[C@]1(C)[C@H]1CC[C@@H]2O1 [cantharidin] | – | – | – | – | – | – | – | – | – | – | – | – | – | – | – | – | – | reversed the impairment of insulin activity
C=C1[C@@H](O)[C@@H]2O[C@]3(CC[C@H](/C=C/[C@@H](C)[C@@H]4CC(C)=C[C@@]5(O[C@H](C[C@@](C)(O)C(=O)O)CC[C@H]5O)O4)O3)CC[C@H]2O[C@@H]1[C@@H](O)C[C@H](C)[C@H]1O[C@@]2(CCCCO2)CC[C@H]1C [okadaic acid] | – | – | – | – | – | – | – | – | – | – | – | – | – | – | – | – | prevent the induction of endothelial barrier injury; also recorded: prevents the induction of endothelial barrier dysfunction | reversed the impairment of insulin activity

Source: US10668062B2, “Oxabicycloheptanes and oxabicycloheptenes for the treatment of diabetes” (priority 2012, dated 2020)
